The record followed here is patent publication US9884863B2, “STAT3 inhibitor” (Board of Regents, The University of Texas System, priority 2013, dated 2018).

The structures appear in SMILES notation.

What is called melting point is the temperature of the solid-liquid transition.

In the case of `N#C/C(=C\c1ccccn1)C(=O)Nc1ccc2c(c1)S(=O)(=O)C=C2` [HJC-5-90, 2-Cyano-N-(1,1-dioxo-1H-1λ^6-benzo[b]thiophen-6-yl)-3-pyridin-2-yl-acrylamide], the melting point is 234 to 235 °C. As for `COc1cc(/C=C(\C#N)C(=O)Nc2ccc3c(c2)S(=O)(=O)C=C3)cc(OC)c1OC` [RMF-1-38, 2-Cyano-N-(1,1-dioxo-1H-1λ^6-benzo[b]thiophen-6-yl)-3-(3,4,5-trimethoxyphenyl)acrylamide], the melting point fell in the range of 224 to 225 °C.

As for `N#C/C(=C\c1ccccc1Br)C(=O)Nc1ccc2c(c1)S(=O)(=O)C=C2` [RMF-1-7, 3-(2-Bromophenyl)-2-cyano-N-(1,1-dioxo-1H-1λ^6-benzo[b]thiophen-6-yl)acrylamide], the melting point lay in the range of 226 to 227 °C.

For `N#C/C(=C\c1cccnc1F)C(=O)Nc1ccc2c(c1)S(=O)(=O)C=C2` [RMF-1-24, 2-Cyano-N-(1,1-dioxo-1H-1λ^6-benzo[b]thiophen-6-yl)-3-(2-fluoro-pyridin-3-yl)acrylamide], the melting point lay within 262 to 263 °C.

Take `N#C/C(=C\c1c(F)cccc1F)C(=O)Nc1ccc2c(c1)S(=O)(=O)C=C2` [HJC-5-91, 2-Cyano-3-(2,6-difluorophenyl)-N-(1,1-dioxo-1H-1λ^6-benzo[b]thiophen-6-yl)acrylamide]: the melting point was 253 to 254 °C.

In turn, `Cc1cc(C)c(/C=C(\C#N)C(=O)Nc2ccc3c(c2)S(=O)(=O)C=C3)c(C)c1` [RMF-1-14, 2-Cyano-N-(1,1-dioxo-1H-1λ^6-benzo[b]thiophen-6-yl)-3-(2,4,6-trimethylphenyl)acrylamide] showed a melting point of 255 to 256 °C. The result for `CN(C)c1ccc(/C=C(\C#N)C(=O)Nc2ccc3c(c2)S(=O)(=O)C=C3)cc1` [RMF-1-16, 2-Cyano-3-(4-dimethylaminophenyl)-N-(1,1-dioxo-1H-1λ^6-benzo[b]thiophen-6-yl)acrylamide] reads 279 to 280 °C; that for `O=C(Nc1ccc2c(c1)S(=O)(=O)C=C2)c1c2ccccc2nc2ccccc12`, 237 to 238 °C. For `N#C/C(=C\c1ccc(F)cc1)C(=O)Nc1ccc2c(c1)S(=O)(=O)C=C2` [RMF-1-29, 2-Cyano-N-(1,1-dioxo-1H-1λ^6-benzo[b]thiophen-6-yl)-3-(4-fluorophenyl)acrylamide], the melting point is 271 to 272 °C. For `N#C/C(=C\c1cccc([N+](=O)[O-])c1)C(=O)Nc1ccc2c(c1)S(=O)(=O)C=C2` [RMF-1-15, 2-Cyano-N-(1,1-dioxo-1H-1λ^6-benzo[b]thiophen-6-yl)-3-(3-nitrophenyl)acrylamide], the melting point fell in the range of 269 to 270 °C. The result for `N#C/C(=C\c1cccc(Br)c1)C(=O)Nc1ccc2c(c1)S(=O)(=O)C=C2` [RMF-1-32, 3-(3-Bromophenyl)-2-cyano-N-(1,1-dioxo-1H-1λ^6-benzo[b]thiophen-6-yl)acrylamide] reads 250 to 251 °C; that for `COc1ccc(/C=C(\C#N)C(=O)Nc2ccc3c(c2)S(=O)(=O)C=C3)cn1` [RMF-1-28, 2-Cyano-N-(1,1-dioxo-1H-1λ^6-benzo[b]thiophen-6-yl)-3-(6-methoxy-pyridin-3-yl)acrylamide], 255 to 256 °C. The result for `COc1ccc(/C=C(\C#N)C(=O)Nc2ccc3c(c2)S(=O)(=O)C=C3)cc1` [RMF-1-13, 2-Cyano-N-(1,1-dioxo-1H-1λ^6-benzo[b]thiophen-6-yl)-3-(4-methoxyphenyl)acrylamide] reads 275 to 276 °C; that for `O=C(Nc1nnc(-c2ccco2)o1)c1cc(Cl)ccc1O` [Compound 13, 5-Chloro-N-(5-furan-2-yl-[1,3,4]oxadiazol-2-yl)-2-hydroxybenzamide], 196 to 197 °C; that for `COc1ccccc1/C=C(\C#N)C(=O)Nc1ccc2c(c1)S(=O)(=O)C=C2` [RMF-1-12, 2-Cyano-N-(1,1-dioxo-1H-1λ^6-benzo[b]thiophen-6-yl)-3-(2-methoxyphenyl)acrylamide], 223 to 224 °C.

Molecule `N#C/C(=C\c1cccnc1Br)C(=O)Nc1ccc2c(c1)S(=O)(=O)C=C2` [RMF-1-26, 3-(2-Bromopyridin-3-yl)-2-cyano-N-(1,1-dioxo-1H-1λ^6-benzo[b]thiophen-6-yl)acrylamide] showed a melting point of 242 to 243 °C. Regarding `N#C/C(=C\c1cccnc1Cl)C(=O)Nc1ccc2c(c1)S(=O)(=O)C=C2` [RMF-1-25, 3-(2-Chloro-pyridin-3-yl)-2-cyano-N-(1,1-dioxo-1H-1λ^6-benzo[b]thiophen-6-yl)acrylamide], the melting point lay in the range of 251 to 252 °C.

`N#C/C(=C\c1ccncc1)C(=O)Nc1ccc2c(c1)S(=O)(=O)C=C2` [RMF-1-23, 2-Cyano-N-(1,1-dioxo-1H-1λ^6-benzo[b]thiophen-6-yl)-3-pyridin-4-yl-acrylamide]: the melting point lay in the range of 288 to 289 °C.

Take `N#C/C(=C\c1cccc(O)c1)C(=O)Nc1ccc2c(c1)S(=O)(=O)C=C2` [RMF-1-10, 2-Cyano-N-(1,1-dioxo-1H-1λ^6-benzo[b]thiophen-6-yl)-3-(3-hydroxyphenyl)acrylamide]: the melting point fell in the range of 262 to 263 °C. Molecule `N#C/C(=C\c1cccc(F)c1)C(=O)Nc1ccc2c(c1)S(=O)(=O)C=C2` [RMF-1-31, 2-Cyano-N-(1,1-dioxo-1H-1λ^6-benzo[b]thiophen-6-yl)-3-(3-fluorophenyl)acrylamide] displayed a melting point of 245 to 246 °C. `N#C/C(=C\c1ccccc1[N+](=O)[O-])C(=O)Nc1ccc2c(c1)S(=O)(=O)C=C2` [RMF-1-36, 2-Cyano-N-(1,1-dioxo-1H-1λ^6-benzo[b]thiophen-6-yl)-3-(2-nitrophenyl)acrylamide]: the melting point fell in the range of 254 to 255 °C.

`N#C/C(=C\c1ccccc1Cl)C(=O)Nc1ccc2c(c1)S(=O)(=O)C=C2` [RMF-1-33, 3-(2-Chlorophenyl)-2-cyano-N-(1,1-dioxo-1H-1λ^6-benzo[b]thiophen-6-yl)acrylamide] had a melting point of 242 to 243 °C. With `COc1cccc(/C=C(\C#N)C(=O)Nc2ccc3c(c2)S(=O)(=O)C=C3)c1` [RMF-1-35, 2-Cyano-N-(1,1-dioxo-1H-1λ^6-benzo[b]thiophen-6-yl)-3-(3-methoxyphenyl)acrylamide] the figure was 245 to 246 °C.
